Measurements: patent US10376520B2, “Methods for the treatment of cardiovascular disorders” (Galapagos NV, priority 2015, dated 2019)

Tested on: Subjects With Active Crohn's Disease
Assay: [HDL] determination, Study 5 (Crohn's disease)
Assay type: in vivo, human
Details: for [HDL] Mean CFB - 10 weeks results: 200 mg q.d.
Text: Double-Blind, Randomized, Placebo-Controlled, Multi-Centre Study to Investigate the Efficacy and Safety of Compound 1 in Subjects With Active Crohn's Disease With Evidence of Mucosal Ulceration.
This is a double-blind, randomized, placebo-controlled, multi-centre Phase 2 study to investigate the efficacy and safety of Compound 1 administered once daily for the treatment of active CD with evidence of mucosal ulceration. The pharmacokinetics (including a PK substudy) and pharmacodynamics of Compound 1 and metabolite in CD will also be characterised.
A total of 180 eligible subjects will be randomized to receive Compound 1 or placebo in addition to their stable background treatment (eg, corticosteroids, aminosalicylates, or CD-related antibiotics). The study will consist of 2 parts, with total treatment duration of 20 weeks. Randomization in Part 1 will be stratified according the subject's previous anti-TNF exposure/response, CRP level at Screening, and oral corticosteroid use at visit Day −1.
After the first 10 weeks of treatment in Part 1, patients will be re-randomized for Part 2 as shown in the diagram below and will be stratified according to the subject's clinical response, previous anti-TNF exposure/response, and oral corticosteroid use at visit Day −1.
The following assays were conducted at Eurofins Global Central Laboratory, Bergschot 71, 4817 PA Breda, The Netherlands, and at Quest Diagnostics, Clinical Trials, Quest House, 125-135 Staines Road, Hounslow, Middlesex, TW3 3JB, United Kingdom. The assays for Study 5 were performed at BARC Europe, 3B, Industrie Park, Zwijnaarde, B-9052 Ghent, Belgium.
This assay relies on a homogeneous enzymatic colorimetric test. In the presence of magnesium ions, dextran sulfate selectively forms water-soluble complexes with LDL, VLDL and chylomicrons which are resistant to PEG-modified enzymes.
The cholesterol concentration of [HDL]-cholesterol is determined enzymatically by cholesterol esterase and cholesterol oxidase coupled with PEG to the amino groups (approx. 40%).
In the presence of peroxidase, the hydrogen peroxide generated reacts with 4-amino-antipyrine and Sodium N-(2-hydroxy-3-sulfopropyl)-3,5-dimethoxyaniline (HSDA) to form a purple-blue dye. The color intensity of this dye is directly proportional to the cholesterol concentration and is measured photometrically.
Human serum and plasma samples [HDL] determination was done on a Roche/Hitachi Cobas c 701/702 system which automatically calculate the analyte concentration of each sample. Samples containing precipitates are centrifuged before performing the assay.

[1] = 200 mg q.d. week 0 to 10, to 100 mg q.d. week 10 to 20, week 4
[2] = 200 mg q.d. week 0 to 10, to 100 mg q.d. week 10 to 20, week 6
[3] = 200 mg q.d. week 0 to 10, to 100 mg q.d. week 10 to 20, week 10
[4] = 200 mg q.d. week 0 to 10, to 100 mg q.d. week 10 to 20, week 12
[5] = 200 mg q.d. week 0 to 10, to 100 mg q.d. week 10 to 20, week 16
[6] = 200 mg q.d. week 0 to 10, to 100 mg q.d. week 10 to 20, week 20
[7] = 200 mg q.d. week 0 to 10, to placebo week 10 to 20, week 2
[8] = 200 mg q.d. week 0 to 10, to placebo week 10 to 20, week 4
[9] = 200 mg q.d. week 0 to 10, to placebo week 10 to 20, week 6
[10] = 200 mg q.d. week 0 to 10, to placebo week 10 to 20, week 10
[11] = 200 mg q.d. week 0 to 10, to placebo week 10 to 20, week 12
[12] = 200 mg q.d. week 0 to 10, to placebo week 10 to 20, week 16
[13] = 200 mg q.d. week 0 to 10, to placebo week 10 to 20, week 20
[14] = continued 200 mg q.d. (N = 77), week 2
[15] = continued 200 mg q.d. (N = 77), week 4
[16] = continued 200 mg q.d. (N = 77), week 6
[17] = continued 200 mg q.d. (N = 77), week 10
[18] = continued 200 mg q.d. (N = 77), week 12
[19] = continued 200 mg q.d. (N = 77), week 16
[20] = continued 200 mg q.d. (N = 77), week 20
[21] = placebo week 0 to 10, then 100 mg q.d. (N = 22), week 12
[22] = placebo week 0 to 10, then 100 mg q.d. (N = 22), week 16
[23] = placebo week 0 to 10, then 100 mg q.d. (N = 22), week 20
[24] = placebo week 0 to 10, to 100 mg q.d. week 10 to 20, week 12
[25] = placebo week 0 to 10, to 100 mg q.d. week 10 to 20, week 16
[26] = placebo week 0 to 10, to 100 mg q.d. week 10 to 20, week 20

## O=C(Nc1nc2cccc(-c3ccc(CN4CCS(=O)(=O)CC4)cc3)n2n1)C1CC1 [Compound 1, cyclopropanecarboxylic acid {5-[4-(1,1-dioxo-thiomorpholin-4-ylmethyl)-phenyl]-[1,2,4]triazolo[1,5-a]pyridin-2yl}-amide]
[1]
  [HDL] Mean CFB - 20 weeks results: 25.33%
  [HDL] Median CFB - 10 weeks results: 16.75%
[2]
  [HDL] Mean CFB - 20 weeks results: 25.93%
  [HDL] Median CFB - 10 weeks results: 23.04%
[3]
  [HDL] Mean CFB - 20 weeks results: 26.29%
  [HDL] Median CFB - 10 weeks results: 19.61%
[4]
  [HDL] Mean CFB - 20 weeks results: 14.27%
  [HDL] Median CFB - 10 weeks results: 10.66%
[5]
  [HDL] Mean CFB - 20 weeks results: 11.19%
  [HDL] Median CFB - 10 weeks results: 2.24%
[6]
  [HDL] Mean CFB - 20 weeks results: 15.54%
  [HDL] Median CFB - 10 weeks results: 10.18%
[7]
  [HDL] Mean CFB - 20 weeks results: 13.75%
  [HDL] Median CFB - 10 weeks results: 13.54%
[8]
  [HDL] Mean CFB - 20 weeks results: 23.62%
  [HDL] Median CFB - 10 weeks results: 27.96%
[9]
  [HDL] Mean CFB - 20 weeks results: 13.52%
  [HDL] Median CFB - 10 weeks results: 13.45%
[10]
  [HDL] Mean CFB - 20 weeks results: 14.87%
  [HDL] Median CFB - 10 weeks results: 15.66%
[11]
  [HDL] Mean CFB - 20 weeks results: −3.87%
  [HDL] Median CFB - 10 weeks results: −1.75%
[12]
  [HDL] Mean CFB - 20 weeks results: −7.46%
  [HDL] Median CFB - 10 weeks results: −3.07%
[13]
  [HDL] Mean CFB - 20 weeks results: −8.40%
  [HDL] Median CFB - 10 weeks results: −4.82%
Week 2
  [HDL] Mean CFB - 10 weeks results: 17.940%
Week 4
  [HDL] Mean CFB - 10 weeks results: 19.414%
Week 6
  [HDL] Mean CFB - 10 weeks results: 20.199%
Week 10
  [HDL] Mean CFB - 10 weeks results: 19.734%
[14]
  [HDL] Mean CFB - 20 weeks results: 0.23 mmol/L
  [HDL] Median CFB - 20 weeks results: 0.21 mmol/L
[15]
  [HDL] Mean CFB - 20 weeks results: 0.18 mmol/L
  [HDL] Median CFB - 20 weeks results: 0.16 mmol/L
[16]
  [HDL] Mean CFB - 20 weeks results: 0.24 mmol/L
  [HDL] Median CFB - 20 weeks results: 0.21 mmol/L
[17]
  [HDL] Mean CFB - 20 weeks results: 0.22 mmol/L
  [HDL] Median CFB - 20 weeks results: 0.25 mmol/L
[18]
  [HDL] Mean CFB - 20 weeks results: 0.20 mmol/L
  [HDL] Median CFB - 20 weeks results: 0.15 mmol/L
[19]
  [HDL] Mean CFB - 20 weeks results: 0.17 mmol/L
  [HDL] Median CFB - 20 weeks results: 0.20 mmol/L
[20]
  [HDL] Mean CFB - 20 weeks results: 0.10 mmol/L
  [HDL] Median CFB - 20 weeks results: 0.15 mmol/L
[21]
  [HDL] Mean CFB - 20 weeks results: 0.03 mmol/L
  [HDL] Median CFB - 20 weeks results: 0.12 mmol/L
[22]
  [HDL] Mean CFB - 20 weeks results: 0.09 mmol/L
  [HDL] Median CFB - 20 weeks results: 0.12 mmol/L
[23]
  [HDL] Mean CFB - 20 weeks results: 0.00 mmol/L
  [HDL] Median CFB - 20 weeks results: 0.10 mmol/L
[24]
  [HDL] Mean CFB - 20 weeks results: 5.75%
  [HDL] Median CFB - 10 weeks results: 8.64%
[25]
  [HDL] Mean CFB - 20 weeks results: 10.06%
  [HDL] Median CFB - 10 weeks results: 8.63%
[26]
  [HDL] Mean CFB - 20 weeks results: 3.77%
  [HDL] Median CFB - 10 weeks results: 11.27%
